Test system: SK-MEL-28
Test: Cytotoxicity against human SK-MEL-28 cells after 48 hrs by sulforhodamine B assay
Format: functional
Conditions: SK-MEL-28, 48 h

For `O=C(Nc1nonc1-c1ccc(Cl)cc1)c1ccc(C(F)(F)F)cc1`, the GI50 (read-out: GI50) was 4.25 µM, the LC50 (read-out: LC50) was > 100 µM and the TGI (read-out: TGI) was > 100 µM. The GI50 (read-out: pGI50 (converted)) was 4.27 µM, the LC50 (read-out: pLC50 (converted)) was > 100 µM and the TGI (read-out: pTGI) was > 100 µM.

Source: ChEMBL document CHEMBL3217756, “Biological and computational evaluation of an oxadiazole derivative (MD77) as a new lead for direct STAT3 inhibitors” (Medchemcomm, 2012)
